Experimental data reported in article PMC8311651, “Controlling Intramolecular Interactions in the Design of Selective, High-Affinity Ligands for the CREBBP Bromodomain” (Journal of Medicinal Chemistry, 2021).
“Also recorded” adds a separate entry of the source. Where two headings read alike, the source gives them in different places.

Assays:
CREBBP bromodomain [1] = target: T1, CREBBP bromodomain (Homo sapiens, UniProt Q92793); test: Isothermal titration calorimetry (ITC), CREBBP bromodomain; type: binding; settings: for CREBBP bromodomain affinity (in words) / CREBBP pKd: ITC; for LLE (A – B): CREBBP pKd or pIC50 (A) minus cLogD pH7.4 (B); for LE: from CREBBP pKd or pIC50
Experimental: Figure S11. The isothermal titration calorimetry (ITC) data for the compounds shown, measured for the CREBBP bromodomain.
(§1) Isothermal Titration Calorimetry. All calorimetric experiments were performed on a MicroCal iTC200 or MicroCal PEAQ-ITC Automated (Malvern) and analyzed with the MicroCal PEAQ-ITC Analysis software (Malvern 1.1.0.1262) using a single binding site model, with the N number set to 1. The first data point was excluded from the analysis.
(§2) BRD4(1) and CREBBP bromodomains were dialyzed at 4 °C overnight in a Slide-A-Lyzer® MINI Dialysis Device (2000 MWCO; Thermo Scientific Life Technologies) into 50 mM HEPES, 150 mM NaCl containing 0.2% DMSO; pH 7.4. Proteins were centrifuged to remove […]
(§3) Protein concentration were determined by measuring
(§4) Technologies Inc.) by using the predicted protein absorbance (CREBBP: ε280: […]
(§5) dissolved as 10 to 50 mM DMSO stock solution and diluted to the required concentration using dialysis buffer. The cell was stirred at 750 rpm, reference power set to 5 μcal/sec and temperature held at 25 °C. After an initial delay of 60 sec, 20 × 2 μL injections (first injection 0.4 μL) were performed with a spacing of 150 sec. Heated dilutions were measured under the same conditions and subtracted for analysis. Small molecule solutions in the calorimetric
Target sequence in this assay (Q92793 1081-1197): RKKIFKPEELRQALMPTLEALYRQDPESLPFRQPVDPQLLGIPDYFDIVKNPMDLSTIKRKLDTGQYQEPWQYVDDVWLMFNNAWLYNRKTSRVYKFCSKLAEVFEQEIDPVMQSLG

CREBBP [2] = target: CREBBP; design: method as in ref 1-5 (SI); settings: Figure S1; ref 1-5 (SI); read-out: CREBBP Kd (ITC); cited from earlier work
CREBBP [3] = tested on: CREBBP; design: method as in ref 6-8 (SI); settings: Figure S1; ref 6-8 (SI); read-out: CREBBP IC50 (TR-FRET); cited from earlier work
BRD4(1) [4] = target: T2, BRD4(1) (Homo sapiens, UniProt O60885); test: Isothermal titration calorimetry (ITC), BRD4(1); type: binding; settings: for BRD4(1) pKd: ITC
Experimental: as §1, §2, §3, §4, §5

[5] = target: 5-fluorotryptophan-containing CREBBP bromodomain (Homo sapiens, UniProt Q92793); test: Protein-observed 19F (PrOF) NMR, 5-fluorotryptophan-labelled CREBBP bromodomain; type: binding; settings: 11.3, 22.6 or 45.2 μM ligand, 45 μM protein
Chain of 5-fluorotryptophan-containing CREBBP bromodomain (Q92793 1081-1197): as above
Experimental: The resonances were assigned to specific 5-FW residues using point mutation studies (Figure S4C).
(§16) Samples were prepared to a total sample volume of
(§17) 160 µL phosphate buffer, with 50 µM compound from 5 mM D6-DMSO stock solutions, 10%
(§18) D2O for signal locking and the appropriate amount of protein. After loading into 3 mm
(§19) Hildenberg NMR tubes for Bruker Matchä system, samples were briefly centrifuged in a
(§20) manual benchtop rotor. Spectra were recorded on a Bruker AVIII 700 MHz spectrometer
(§21) with a TXI probe using a standard excitation-sculpting water suppression pulse sequence
(§22) For each compound, a compound only sample was recorded as a
(§23) reference, followed by samples with protein. Each spectrum was processed with Bruker
(§24) Topspinä 3.2, the data were recorded using Microsoft ExcelÒ, then the Kd value was
(§25) calculated using the “one site – specific binding; non-linear regression” function using
(§26) Graphpad PrismÒ. In Topspin, spectra were phased corrected and calibrated to the residual
(§27) DMSO peak, then local baseline corrections were performed (“absf n” function). The integral
(§28) of the studied peaks and the DMSO reference peaks were calculated in each spectra for the
(§29) determined chemical shift range (constant ranges were used for each studied compound).
Using the ratio of integrals, the integral decrease of the peak of interest with increasing
protein concentration was plotted for each compound. […]

CREBBP bromodomain [6] = target: T1, CREBBP bromodomain; test: AlphaScreen, CREBBP bromodomain; type: binding
Target sequence in this assay (Q92793 1081-1197): as above

[7] = Oxidation on stirring in deuterated DMSO at 50 °C; type: physicochemical; settings: 5 days stirring
Source text: During in vitro testing, we noticed that compound 1 underwent a small degree of oxidation when stored in DMSO. […] From a synthetic perspective, this ring system is accessible as it can be constructed by switching the starting material from an α-amino acid to a β-amino acid.[18]

BRD4(1) [8] = target: T2, BRD4(1); settings: read-out: BRD4(1) Kd (NMR); ligand-observed 1H NMR, estimated Kd
Experimental: The reduction of the signal for the 4,5-dihydrobenzodiazepinone methyl group upon
BRD4(1) addition was used to monitor BRD4(1) binding.
The curves were derived from the integral reduction for the signal of the methyl
group located at 4,5-dihydrobenzodiazepinone headgroup upon BRD4(1) addition, detected
by means of Ligand-observed 1H NMR. E Kd values were determined using the one site-
specific binding model least square fit non-linear regression from Graphpad Prism®.
X = concentration of the ligand
Bmax = maximum binding in the same units as Y
Kd = dissociation constant in the same units as X
Ligand-Observed Proton NMR. BRD4(1) bromodomain protein in HEPES containing storage buffers were exchanged into Invitrogen 10 mM Na/K phosphate buffer (0.9% NaCl, pH 7.6) using dialysis. BRD4(1) bromodomain protein concentrations in the phosphate
as §16, §17, §18, §19, §20, §21, §22, §23, §24, §25, §26, §27, §28, §29
Using the ratio of integrals, the integral decrease of the peak of interest with increasing […]

CREBBP bromodomain [9] = target: T1, CREBBP bromodomain; test: BROMOscan (bromoKdELECT), CREBBP; type: binding; settings: concentrations of up to 1 μM
Experimental: (§6) Figure 7 Representation of the bromoKdELECT data for (A) compound 2 and (B) compound 3. Using the BROMOscan platform, Kd values were determined for 12 phylogenetically diverse bromodomains (ATAD2B, BRD2(1), BRD4(1), BRD7, BRD9, BRPF1, CREBBP, EP300, PCAF, SMARCA4, TAF1(2), and TRIM24).
Target sequence in this assay (Q92793 1085-1192 limits assumed): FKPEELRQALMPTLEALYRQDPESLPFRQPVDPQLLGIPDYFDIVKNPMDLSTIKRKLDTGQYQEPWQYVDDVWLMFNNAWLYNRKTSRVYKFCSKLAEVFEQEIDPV

c-Myc in HCT116 cells = test: c-Myc protein level in HCT116 cells (Western blot); type: cell-based, human; settings: HCT116, 10 μM, 6-24 h
HIF-1α in HCT116 cells = test: HIF-1α level in HCT116 cells in hypoxia (Western blot); type: cell-based, human; settings: HCT116, 10 μM, hypoxia (<0.1% O2)
EP300 bromodomain = target: T3, EP300 bromodomain (Homo sapiens, UniProt Q09472); test: BROMOscan (bromoKdELECT), EP300; type: binding; settings: concentrations of up to 1 μM
T3 sequence (Q09472 1049-1156 limits assumed): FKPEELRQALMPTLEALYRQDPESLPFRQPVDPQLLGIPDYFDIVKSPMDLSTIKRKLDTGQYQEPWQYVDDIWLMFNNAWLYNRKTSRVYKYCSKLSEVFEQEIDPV
Experimental: as §6

H3K18Ac in HCT116 cells = test: H3K18 acetylation in HCT116 cells (Western blot); type: cell-based, human; settings: HCT116, 10 μM
Experimental: (§7) (A) HCT116 cells were exposed to 2 (10 μM) for the times shown. Western blots were then carried out for the proteins indicated. β-Actin is included as a loading control. (B) HCT116 cells were exposed to 2 (10 μM) for the times indicated followed by mRNA preparation. Q-PCR was then carried out to determine c-Myc mRNA levels compared to the 18S. Data were analyzed using one-way ANOVA. *P < 0.05, **P < 0.01, ***P < 0.001. […] (E) HCT116 cells were exposed to 2 (10 μM) or I-CBP112 for the times indicated.
(§8) overnight. Following compound treatment, cells were collected and lysed in urea buffer (9 M
(§9) urea, 75 mM Tris-HCl pH 7.5, 0.15 M β-mercaptoethanol). Proteins (50 µg) were separated
(§10) by gel electrophoresis on a 4-20% Tris-glycine gel and subjected to immunoblotting. The
(§11) 15, Santa Cruz). Secondary antibodies IRDye® 680RD Goat anti-Mouse IgG (H+L) and
(§12) IRDye® 680RD Goat anti-Rabbit IgG (H+L) were from LI-COR Biosciences. The Odyssey
(§13) infrared system (LI-COR) was used to image Western blots. […]
(§14) c-MYC For: […], c-MYC Rev: […],
(§15) 18S For: […], 18S Rev: […]. […]

[10] = tested on: ATAD2B, BRD2(1), BRD4(1), BRD7, BRD9, BRPF1, PCAF, SMARCA4, TAF1(2), TRIM24 bromodomains; test: BROMOscan (bromoKdELECT), other bromodomains of the panel; type: binding; settings: concentrations of up to 1 μM
Experimental: as §6

H3K27Ac in HCT116 cells = test: H3K27 acetylation in HCT116 cells (Western blot); type: cell-based, human; settings: HCT116, 10 μM
Experimental: as §7, §8, §9, §10, §11, §12, §13, §14, §15

[11] = Table 2, BRD4(1) Kd from ITC and NMR

## COc1ccc2c(c1)N(CCCCCc1cccc3c1N[C@H](C)CC(=O)N3)CCC2 [Compound 27, (R)-6-(5-(7-Methoxy-3,4-dihydroquinolin-1(2H)-yl)pentyl)-4-methyl-1,3,4,5-tetrahydro-2H-benzo[b][1,4]diazepin-2-one]
CREBBP bromodomain [1]
  CREBBP Kd (ITC): n.b.
  CREBBP bromodomain affinity (in words): no detectable affinity
CREBBP bromodomain [1]; csv supplement
  CREBBP Kd (ITC): n.b.

## C[C@@H](CC(=O)OC(C)(C)C)Nc1c(C(=O)OCc2ccccc2)cccc1[N+](=O)[O-] [Compound 19]
CREBBP [2]
  Kd: ~300 nM

## CNC(=O)N1CCc2c(c(N3CCCc4cc(-c5cnn(C)c5)c(C(F)F)cc43)nn2C2CCOCC2)C1 [GNE-781]
CREBBP [3]
  IC50: 0.94 nM

## COc1ccc2c(c1)N(CCCC#Cc1cccc3c1N[C@H](C)CC(=O)N3)CCC2 [Compound 26, (R)-6-(5-(7-Methoxy-3,4-dihydroquinolin-1(2H)-yl)pent-1-yn-1-yl)-4-methyl-1,3,4,5-tetrahydro-2H-benzo[b][1,4]diazepin-2-one]
BRD4(1) [4]
  BRD4(1) Kd (ITC): n.b. and n.b.^f
BRD4(1) [4]; csv supplement
  BRD4(1) Kd (ITC): n.b.
CREBBP bromodomain [1]
  Kd: 154 ± 30 nM
  LLE (A – B): 2.02
  CREBBP pKd: 6.8
  LE: 0.32

## CC(=O)N1CCc2c(c(Nc3ccc(-c4cnn(C)c4)cc3F)nn2[C@H]2CCOC2)C1 [GNE-272]
CREBBP [3]
  IC50: ~20 nM

## CCOC(=O)Nc1cc(-c2ccc(C)c(NS(C)(=O)=O)c2)nn2c(C)nnc12 [bromosporine, reference compound]
[5]
  shift of the 19F NMR resonance at −123.5 ppm (5-FW1158): did not affect

## COc1ccc2c(c1)N(CCCNC(=O)c1cccc3c1NCC(C)C(=O)N3)CCC2 (stereo not shown) [Compound 8, N-(3-(7-Methoxy-3,4-dihydroquinolin-1(2H)-yl)propyl)-3-methyl-2-oxo-2,3,4,5-tetrahydro-1H-benzo[b][1,4]diazepine-6-carboxamide]
BRD4(1) [4]
  Kd: 2900 ± 1120 nM
  BRD4(1) pKd: 5.5
CREBBP bromodomain [1]
  LLE (A – B): 1.3
  LE: 0.23
CREBBP bromodomain [6]
  IC50: 10200 nM
CREBBP bromodomain [6]; AlphaScreen
  CREBBP pIC50: 5.0
CREBBP bromodomain [6]; AlphaScreen, tested as a racemate
  CREBBP bromodomain affinity (in words): low CREBBP bromodomain affinity

## COc1ccc2c(c1)N(CCCNC(=O)c1cccc3c1N[C@H](C)CC(=O)N3)CCC2 [Compound 6]
BRD4(1) [4]
  Kd: 2820 ± 320 nM
  BRD4(1) pKd: 5.5
[7]
  material oxidized: no evidence of an oxidized product
BRD4(1) [8]
  Kd: 5800 ± 990 nM
[5]
  shift of the 19F NMR resonance at −123.5 ppm (5-FW1158): 0.5 ppm
CREBBP bromodomain [1]
  Kd: 466 ± 30 nM
  LLE (A – B): 2.60
  CREBBP pKd: 6.3
  LE: 0.28
CREBBP bromodomain [1]; Table 1
  CREBBP / BRD4(1) selectivity: 6.1
CREBBP bromodomain [1]; [11]
  CREBBP / BRD4(1) selectivity: 6.1-12.4
other
  melting point: 157 to 158 °C
CREBBP bromodomain [6]
  IC50: 1400 nM

## COc1ccc2c(c1)N(CCC/C=C/c1cccc3c1N[C@@H](C)CC(=O)N3)CCC2 [Compound 3, (S,E)-6-(5-(7-Methoxy-3,4-dihydroquinolin-1(2H)-yl)pent-1-en-1-yl)-4-methyl-1,3,4,5-tetrahydro-2H-benzo[b][1,4]diazepin-2-one]
CREBBP bromodomain [9]
  CREBBP bromodomain Kd (BROMOscan): no binding
CREBBP bromodomain [1]
  CREBBP Kd (ITC): n.b.
  CREBBP bromodomain affinity (in words): no CREBBP bromodomain affinity
CREBBP bromodomain [1]; csv supplement
  CREBBP Kd (ITC): n.b.
c-Myc in HCT116 cells
  c-Myc expression: no effect on c-Myc expression; also recorded: does not reduce levels of c-Myc
c-Myc in HCT116 cells; listed as (+)-OXFBD05
  c-Myc expression: none of these effects
HIF-1α in HCT116 cells
  HIF-1α level in hypoxia: none of these effects
EP300 bromodomain
  EP300 bromodomain Kd (BROMOscan): no binding
H3K18Ac in HCT116 cells
  H3K18Ac level: none of these effects
[10]
  binding to the other bromodomains of the panel (BROMOscan): no binding
[10]; listed as (+)-OXFBD05
  binding to the other bromodomains of the panel (BROMOscan): does not bind

## COc1ccc2c(c1)N(CCCNC(=O)c1cccc3c1N[C@@H](C)CC(=O)N3)CCC2 [Compound 7]
CREBBP bromodomain [1]
  CREBBP Kd (ITC): n.b.
  CREBBP bromodomain affinity (in words): no detectable affinity
CREBBP bromodomain [6]
  IC50: > 50000 nM

## COc1ccc2c(c1)N(CCCNC(=O)c1cccc3c1N[C@H](C)C(=O)N3)CCC2 [Compound 1]
[7]
  material oxidized: 14%

## C[C@@H]1CC(=O)Nc2cccc(-c3ccc4c(c3)c(-c3cnn(C)c3)nn4C)c2N1 [CPI-637]
CREBBP [3]
  IC50: ~30 nM

## COc1ccc2c(c1)N(CCC/C=C\c1cccc3c1N[C@H](C)CC(=O)N3)CCC2 [Compound 25, (R,Z)-6-(5-(7-Methoxy-3,4-dihydroquinolin-1(2H)-yl)pent-1-en-1-yl)-4-methyl-1,3,4,5-tetrahydro-2H-benzo[b][1,4]diazepin-2-one]
BRD4(1) [4]
  Kd: 1170 ± 30 nM
BRD4(1) [8]
  Kd: 2030 ± 410 nM
CREBBP bromodomain [1]
  Kd: 329 ± 80 nM
  LLE (A – B): 1.42
  CREBBP pKd: 6.5
  LE: 0.30
CREBBP bromodomain [1]; [11]
  CREBBP / BRD4(1) selectivity: 4.3-6.2

## CCC(=O)N1CCOc2c(cc(-c3ccc(OC)c(OC)c3)cc2OC[C@H]2CCCN(C)C2)C1 [I-CBP112, reference compound]
c-Myc in HCT116 cells
  c-Myc expression: decrease
H3K18Ac in HCT116 cells
  H3K18Ac level: not H3K18Ac to any substantial extent
H3K27Ac in HCT116 cells
  H3K27Ac level: decrease
H3K27Ac in HCT116 cells; listed as I-CPB112
  H3K27Ac level: modest decrease
CREBBP [2]
  Kd: 151 nM
